Measurements reported in patent EP0326936A2, “Use of 2-(phenyl-amino)-2-imidazolines in the application of shock therapy” (BOEHRINGER INGELHEIM KG, priority 1988, dated 1989).

Columns and labels:
hämorrhagischen Schock [1] = test: Second shock model: two-day observation phase, no preparation of the M. cremaster; format: in vivo; details: for Überlebende: number of survivors, N=15 per compound, Kontrolle 12 of 40
Description: (§1) Die Eignung von Alinidin und anderen Verbindungen der allgemeinen Formel I zur erfindungsgemäßen Anwendung bei der Schocktherapie wurde in tierexperimentellen Untersuchungen an einem Cremaster-Modell bestätigt. Dieses Modell stellt eine etablierte Methode dar, (S. Hergenröder "Mikrozirkulation im hämorrhagischen Schock", Diplomarbeit am Fachbereich Biologie der Joh.-Gutenberg-Universität, Mainz 1987). An diesem Modell werden Einflüsse auf den systemischen Blutdruck, die Herzfrequenz, den daraus errechneten Schockindex sowie wichtige mikrozirkulatorische Parameter, wie Arteriolendurchmesser, die Eryhthrozytenfließgeschwindigkeit und die daraus errechnete Mikroperfusion (Organdurchblutung) und die Überlebensrate bestimmt. Der Versuchsablauf besteht aus einer präparativen Kontrollphase, gefolgt von einer spontanen Entblutung mit einem raschen Blutdruckabfall auf 25 mm Hg, einer isovolämischen intravenösen 10-minütigen Infusion mit physiologischer NaCl-Lösung (Kontrolltiere) bzw. physiologischer NaCl-Lösung mit darin gelösten Wirkstoffen und einer abschließenden Nachbeobachtungsphase (60 - 120 Minuten). Das zweite Modell unterscheidet sich durch eine zweitägige Nachbeobachtungsphase ohne Präparation des M. cremaster.

hämorrhagischen Schock [2] = test: Cremaster model of haemorrhagic shock (bleeding to 25 mm Hg, 10-minute isovolaemic i.v. infusion, 60-120 min observation); format: in vivo; details: Alinidin 1 mg/kg, N=6
Description: as §1, with “cremaster. […]” for “cremaster.”

| SMILES | Überlebende (hämorrhagischen Schock [1]) | Überlebensrate (hämorrhagischen Schock [2]; NaCl control group 4 of 20 animals surviving after 60 minutes) [%] | systemische, insbesondere mikrozirkulatorische Parameter (hämorrhagischen Schock [2]; effects in NaCl control group small and short-lived) | überlebten (Tiere) (hämorrhagischen Schock [1]; survivors out of 15 pretreated animals) |
| --- | --- | --- | --- | --- |
| CCc1cccc(CC)c1N=C1NCCN1 [A, 2-[2,6-Diethylphenylimino]imidazolidin] | 10 |  |  |  |
| C=CCN(C1=NCCN1)c1c(Cl)cccc1Cl [C, 2-[N-2,6-Dichlorphenyl-N-allylamino]imidazolin-(2)] | 13 | 100 | Erholung | 13 |
| CC#CCN(C1=NCCN1)c1c(Cl)cccc1Cl [B, 2-[N-2,6-Dichlorphenyl-N-2-butinylamino]imidazolin-(2)] | 10 |  |  |  |
